Assay results taken from US20200270588A1, “GLUCOSYL TRANSFERASE POLYPEPTIDES AND METHODS OF USE” (Syngenta Participations AG, priority 2017, published 2020).
Where “and” joins values, the source holds several entries; their conditions need not be identical. Identical values can stand only once.

How the values were obtained:
[1] = tested on: transgenic tobacco plants expressing SEQ ID NO: 17; assay: Glass house spray test on tobacco, percent damage; type: in vivo; conditions: for tolerance compared with w/t and SEQ ID NO: 1 plants: 200 and 500 g/ha, 14 DAT, several events
Text: (§1) Three transgenic populations of about forty tobacco plants and comprising, a glucosyl transferase gene encoding either zmBX8 (SEQ ID NO 2) or zmBX9 (SEQ ID NO 1) were thus produced. A sub-set of about 30 plants were selected on the basis of similar size from each population for spray testing. The plants were then sprayed with 30 g/ha of Compound VI. VI was mixed in water with 0.2-0.25% X-77 surfactant and sprayed from a boom on a suitable track sprayer moving at 2 mph with the nozzle about 2 inches from the plant tops. Spray volume was 200 l/ha. Plants were assessed for damage and scored at 7 and 14 days after treatment (DAT).
(§2) In a further example, Zea mays BX8 or BX9 or orthologues of BX8/9, are altered to carry amino acid variants at various positions which increase tolerance to the alcohol and aminal PSII herbicides as described in the example above. DNA sequences that encode these polypeptides (optimized for tobacco or, optionally, codon optimized according to a target crop such as soybean) were prepared for tobacco transformation as described in example 10. […] Transgenic tobacco populations expressing SEQ ID NOs 16 and 17 were generated alongside a population expressing the parental zmBX9 sequence (SEQ ID 1). These populations were sprayed with herbicide V and VI at rates of 200 and 500 g/ha. Plants were assessed for damage and scored at 14 days after treatment (DAT). The results are depicted in Table 19 and also in FIG. 6.

wild type tobacco plants = assay: Glass house spray test on tobacco, percent damage; type: in vivo; conditions: 14 DAT
Method: Once rooted, plantlets are transferred from agar and potted into 50% peat, 50% John Innes Soil No. 3 with slow-release fertilizer in 3 inch round pots and left regularly watered to establish for 8-12d in the glass house. Glass house conditions are about 24-27° C. day; 18-21° C. night and approximately a 14h photoperiod. Humidity is adjusted to ˜65% and light levels used are up to 2000 μmol/m^2 at bench level.
as §1, §2

[2] = molecular target: T1, SEQ ID 31, mutant bx-type glucosyl transferase (Zea mays, UniProt Q8W2B7, S121V); assay: LC/MS glucosyl transferase assay (glucoside peak area), purified enzyme; type: biochemical; conditions: about 60 min, ~15 pmol enzyme, relative quantification only
T1 construct: 31; nd; 8.84E+06; 5.57E+06; His tag; made in house
Method: (§3) In an alternative method for assaying the various enzymes, the test glucosyl transferase enzyme is reacted with substrates exactly as above except that the assay is stopped by adding an equal volume of acetonitrile. Alternatively 50 or 100 μl samples from assay reactions are added to 500 μl ethyl acetate to stop the reaction. In this case samples are then vortexed and 400 μl of the ethyl acetate partition removed, dried down, and resuspended in 100 μl 80:20 acetonitrile/water. The formation of product gluco side and/or disappearance of substrate test herbicide is then monitored directly by LC/MS. Samples are analyzed by LC-MS using an Agilent 1290 liquid chromatography system and Thermo Q-Exactive mass spectrometer. The chromatography is achieved on a Waters Acquity C18 BEH (50×2.1 mm) 1.7 μm particle size column, using a 6 minute gradient run of Water (0.2% formic acid) and Acetonitrile. The Q-Exactive is operated in positive ionisation electrospray mode, using Full scan-AIF mode, at 35,000 resolution, between 100-800 m/z. All analytes are identified from the full scan data to within at least 5 ppm accuracy of their predicted pseudo-molecular ion [M+H]^+ m/z value. In order to obtain quantitative data standard curves are run using herbicides and herbicide glucosides synthesized as standards. Where these synthetic glucosides were not available the LC/MS assay could only be used to provide relative data.
(§4) DNA sequences, optimized for E. coli codon usage, were cloned, expressed and the various proteins purified and assayed as described in the foregoing examples. Using the UDP assay (as described in examples 1, 3 and 6) the data obtained from the Zea mays bx8 w/t protein and its variants was noisy due to relatively high background rates in DMSO reagent blanks. The values reported in the table 15 were thus monitored by LC/MS as described in example 1.

[3] = tested on: SEQ ID 47, mutant bx-type glucosyl transferase; assay: as above; type: biochemical; conditions: about 60 min, ~15 pmol enzyme, nd = not detectable
Method: as §3, §4

[4] = molecular target: T2, SEQ ID 33, mutant bx-type glucosyl transferase (Zea mays, UniProt Q8W2B7, A285K); assay: as above; type: biochemical; conditions: about 60 min, ~15 pmol enzyme, relative quantification only
T2 construct: 33; 1.70E+05; 3.59E+07; 9.27E+06; His tag; made in house
Method: as §3, §4

T1 sequence (Q8W2B7 whole entry S121V): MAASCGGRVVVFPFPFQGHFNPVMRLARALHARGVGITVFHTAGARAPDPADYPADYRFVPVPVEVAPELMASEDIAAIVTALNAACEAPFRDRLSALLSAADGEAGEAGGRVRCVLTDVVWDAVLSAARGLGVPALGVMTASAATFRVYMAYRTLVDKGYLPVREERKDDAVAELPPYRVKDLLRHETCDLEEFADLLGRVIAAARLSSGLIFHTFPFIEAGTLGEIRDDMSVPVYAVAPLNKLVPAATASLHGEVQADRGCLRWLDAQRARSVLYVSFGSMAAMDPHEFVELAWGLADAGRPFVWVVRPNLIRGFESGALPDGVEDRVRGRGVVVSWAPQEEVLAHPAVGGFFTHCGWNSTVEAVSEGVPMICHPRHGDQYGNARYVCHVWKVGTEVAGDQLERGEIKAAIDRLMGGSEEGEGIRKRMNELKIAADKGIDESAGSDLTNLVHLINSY
T2 sequence (Q8W2B7 whole entry A285K): as the sequence (Q8W2B7 whole entry S121V) above, with V121S, A285K counted along it

CN1CC(O)N(c2cc(C(F)(F)F)ccn2)C1=O (stereo not shown) [Compound V]
tolerance compared with w/t and SEQ ID NO: 1 plants [1]: much superior tolerance | percent damage (wild type tobacco plants; 200 gai/ha V, WT tobacco plants 1-9): 100% | percent damage (wild type tobacco plants; 500 gai/ha V, WT tobacco plants 1-9): 100% | integrated peak area of beta-glucoside product [2]: 5.57E+06 and 5.59E+06 | integrated peak area of beta-glucoside product [3]: 8.67E+05 and 6.30E+05 | integrated peak area of beta-glucoside product [4]: 9.27E+06 and 9.76E+06

CON1C(=O)N(c2cc(C(F)(F)F)ccn2)C(O)[C@@H]1C (stereo partly shown) [Compound VI]
tolerance ([1]; 1 kg/ha, events 7937, 7940, 7952, 8039, 8071, 8106 expressing SEQ ID NOs 16 and 17, data not shown): substantially fully tolerant | tolerance compared with w/t and SEQ ID NO: 1 plants [1]: much superior tolerance | percent damage (wild type tobacco plants; 30 g/ha compound VI, plants A, B, C): 75% and 95% and 85% | percent damage (wild type tobacco plants; 500 gai/ha VI, WT tobacco plants 1-9): 100% | integrated peak area of beta-glucoside product [2]: 8.84E+06 and 1.04E+07 | integrated peak area of beta-glucoside product [3]: 1.68E+05 and 1.05E+05 | integrated peak area of beta-glucoside product [4]: 3.59E+07 and 3.45E+07
